One series relates to HMOX1 (Heme oxygenase 1). Kind of series: Quantitative PCR of HMOX1 in MOLM-13 or MV-411 cells. In kind it is cell-based. The following applies: 20 μM, 6 hours, MOLM-13 and MV-411 cells. The protocol:
(§1) (FIG. 8A) Graphical representation of the fold changes of HMOX-1 in MOLM-13 cells. Cells were seeded at 0.5 million cells per milliliter and subject to 20 μM of DHL, leucodine, DHL-proline, DHL-piperidine, DHL-morpholine, or parthenolide for 6 hours. RNA was then extracted and quantitative PCR was performed. Experiments were performed in triplicates. Lines represent mean for each specimen, with error bars representing the SD. Fold change was calculated by the delta-delta Ct method. […] (FIG. 8D) Immunoblot for MOLM-13 cells after 6 hours of treatment with either DHL or PTL with 10 or 20 μM. Blot was probed for phospho-p65 and p65 antibodies. Total p65 is shown as the loading control.
(FIG. 9A) Graphical representation of the fold changes of HMOX-1 in MV-411 cells. Cells were seeded at 0.5 million cells per milliliter and subject to 20 μM of DHL, leucodine, DHL-proline, DHL-piperidine, DHL-morpholine, or parthenolide for 6 hours. RNA was then extracted and quantitative PCR was performed. Experiments were performed in triplicates. Lines represent mean for each specimen, with error bars representing the SD. Fold change was calculated by the delta-delta Ct method. (FIG. 9B) Graphical representation of the fold changes of HSPA1A in MV-411 cells, with the same experimental setup and analysis as FIG. […].
(§2) To compare these intracellular effects of DHL and its derivatives, quantitative PCR was performed (FIG. 8 and FIG. 9). MOLM-13 or MV-411 cells were seeded at 0.5 million cells per milliliter. Cells were treated for 6 hours with 20 μM of DHL, Leucodine, DHL-Morpholine, DHL-Proline, DHL-Piperidine or PTL, and then collected. Total RNA was extracted using the Qiashredder and Qiagen Rneasy Mini kits. […] Quantitative PCR was performed using probes for HMOX-1 (Hs01110251_m1), HSPA1A (Hs00359163_s1), and NFKB1 (Hs00765730_m1). […] Single-plex real-time PCR was performed in triplicates in a StepOne plus RealTime PCR system and analyzed with the StepOne Software. Fold change was calculated using the 2-DDCT method described by Livak and Schmittgen.

In another series the test system is NF-κB. Kind of series: Quantitative PCR of NF-κB transcript in MOLM-13 and MV-411 cells. It counts as cell-based. Particulars: 20 μM, 6 hours. How it is done:
as §1
as §2, with “collected.” for “collected. Total RNA was extracted using the Qiashredder and Qiagen Rneasy Mini kits.”

A further series deals with MOLM-13. Kind of series: Cytotoxicity, annexin V/7-AAD viability by flow cytometry, MOLM-13. It counts as cell-based, human. Particulars: MOLM-13, 48 hours, drug range tested 1.25-160 μM. How it is done:
(§3) In order to assess the structure-activity relationship of DHL and its derivatives, DHL and its derivatives were evaluated against eight human leukemia cell lines. Cell lines were cultured in Iscove's Modified Dulbecco's Medium (IMDM) supplemented with 10%˜20% fetal bovine serum (FBS) according to culture conditions indicated by ATCC and 1% penicillin/streptomycin (Pen/Strep) at 37° C. and 5% CO2. The cells were seeded into 96-well plates and kept at a concentration of 0.5 million cells per mL. The samples were treated with DHL, Leucodine, DHL-Morpholine, DHL-Proline, DHL-Piperidine, and PTL at varying concentrations in triplicates. Cell viability was determined after incubating for 48 hours. The cells were stained with annexin V-fluorescein isothiocyanate or phycoeritrine (FITC/PE) and 7-aminoactinomycin (7-AAD) to detect phosphatidylserine exposition and cell permeability, respectively. At least 50,000 events were recorded per condition on either an LSR-II or LSR-Fortessa flow cytometer (BD Biosciences). Data analysis was conducted using FlowJo 9.6 software for Mac OS X (TreeStar). Cells that were negative for annexin V and 7-AAD were scored as viable.

The next series relates to NCI-H322M. Kind of series: Single dose tumor cell growth inhibition, Non-Small Cell Lung Cancer NCI-H322M. In kind it is cell-based. The following applies: single dose 10 μM. The source says:
(§4) DHL is cytotoxic to various leukemia, colon cancer, CNS cancer and prostate cancer cell lines.

The next series concerns TUR. Kind of series: Cytotoxicity, annexin V/7-AAD viability by flow cytometry, TUR. In kind it is cell-based, human. The following applies: 48 hours, drug range tested 1.25-160 μM. How it is done:
as §3
(In flow cytometry, cells or beads pass a laser one at a time.)

Another series has as its system phospho-p65. Kind of series: Western blot of phospho-p65 and total p65 in MOLM-13 cells. Particulars: 10 or 20 μM, 6 hours. It counts as cell-based. The protocol: as §1
Background: Immunoblotting shows a protein as a band on a membrane.

A further series deals with MV4-11. The series can be described thus: Cytotoxicity, annexin V/7-AAD viability by flow cytometry, MV4-11. It counts as cell-based, human. The following applies: MV4-11, 48 hours, drug range tested 1.25-160 μM. The protocol:
as §3

For another series, the system named is NCI-H460. Kind of series: Single dose tumor cell growth inhibition, Non-Small Cell Lung Cancer NCI-H460. Particulars: NCI-H460, single dose 10 μM. It counts as cell-based.
Description: as §4

Another series is described as follows: Log P octanol/water. It counts as physicochemical. The following applies: experimentally determined.
For another series, the system named is PC-3. Kind of series: Single dose tumor cell growth inhibition, Prostate Cancer PC-3. It counts as cell-based, human. The following applies: PC-3, single dose 10 μM.
Description: as §4

The test system of series [1] is eight human leukemia cell lines.
Description: Cell lines were cultured in Iscove's Modified Dulbecco's Medium (IMDM) supplemented with 10%˜20% fetal bovine serum (FBS) according to culture conditions indicated by ATCC and 1% penicillin/streptomycin (Pen/Strep) at 37° C. and 5% CO2. The cells were seeded into 96-well plates and kept at a concentration of 0.5 million cells per mL. […] Cell viability was determined after incubating for 48 hours. The cells were stained with annexin V-fluorescein isothiocyanate or phycoeritrine (FITC/PE) and 7-aminoactinomycin (7-AAD) to detect phosphatidylserine exposition and cell permeability, respectively. At least 50,000 events were recorded per condition on either an LSR-II or LSR-Fortessa flow cytometer (BD Biosciences). Data analysis was conducted using FlowJo 9.6 software for Mac OS X (TreeStar). Cells that were negative for annexin V and 7-AAD were scored as viable.
The next series relates to RPMI-8226. The series can be described thus: Single dose tumor cell growth inhibition, Leukemia RPMI-8226. In kind it is cell-based. Particulars: RPMI-8226, single dose 10 μM.
Description: as §4

A further series deals with HOP-62. The series can be described thus: Single dose tumor cell growth inhibition, Non-Small Cell Lung Cancer HOP-62. It counts as cell-based. The following applies: HOP-62, single dose 10 μM.
Description: as §4

Turning to `C=C1C(=O)O[C@@H]2[C@H]3C(C)=CC(=O)C3=C(C)CC[C@@H]12` [DHL, dehydroleucodine], the “HMOX1 expression, fold change” value with HMOX1 (Heme oxygenase 1) is “upregulated”. For the same compound, in the series on NF-κB, the “NF-κB transcript levels” value is on record as “slightly downregulated”. Further, the LD50 was 12.59 µM in the series on MOLM-13, 12.18 µM in the series with TUR and 5.02 µM in the series on MV4-11. In addition, the Percent inhibition is recorded as 0.0% in the series with NCI-H322M; 0.0% in the series on NCI-H460; 38.6% in the series with PC-3; 31.7% in the series with RPMI-8226; 0.0% with HOP-62. In the series with phospho-p65, the “phospho-p65 level by Western blot” value was “significant decrease”. Besides, in “Log P octanol/water”, the “Log P octanol/water” value is reported as 2.33 (±0.16). Also, in [1], the “anti-leukemic activity / in vitro cytotoxicity” value was “more potent anti-leukemic activity than PTL in most samples”. For the same compound, the “LD50 values in the various leukemic cell lines tested” value in series [1] (range over the AML cell lines, 48 hours of treatment) lay within 5.02 to 18.95 µM.

Values taken from patent US11059800B2, “Dehydroleucodine derivatives and uses thereof” (Bioventures, LLC, priority 2013, dated 2021).
